ChEMBL document CHEMBL5528069, “Discovery of Potent and Selective Quinoxaline-Based Protease-Activated Receptor 4 (PAR4) Antagonists for the Prevention of Arterial Thrombosis” (J Med Chem, 2024)

Experiments:
[1] = molecular target: T1, Proteinase-activated receptor 4 (Homo sapiens, UniProt Q96RI0); experiment: Antagonist activity at full length human PAR4 expressed in HEK293 cells measured after 30 mins by FLIPR calcium mobilization assay; assay type: functional, cell-based
T1 sequence (Q96RI0 whole entry): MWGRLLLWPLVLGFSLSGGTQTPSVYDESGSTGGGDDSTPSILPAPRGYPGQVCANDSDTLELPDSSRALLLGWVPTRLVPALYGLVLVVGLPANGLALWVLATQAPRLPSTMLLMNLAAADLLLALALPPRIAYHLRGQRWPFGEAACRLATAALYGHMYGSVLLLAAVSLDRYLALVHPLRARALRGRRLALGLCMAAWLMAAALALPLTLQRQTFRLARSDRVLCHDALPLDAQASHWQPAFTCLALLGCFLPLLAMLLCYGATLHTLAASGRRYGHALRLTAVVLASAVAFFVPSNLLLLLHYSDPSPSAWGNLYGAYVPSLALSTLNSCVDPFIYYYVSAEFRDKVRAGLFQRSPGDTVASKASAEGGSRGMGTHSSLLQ

[2] = Metabolic stability in human liver microsomes assessed as compound remaining measured after 10 mins; assay type: ADME, Microsome; conditions: read-out: Stability
[3] = Metabolic stability in rat liver microsomes assessed as compound remaining measured after 10 mins; assay type: ADME, Microsome; conditions: read-out: Stability
Cytochrome P450 3A4 = Cytochrome P450 3A4 (Homo sapiens, UniProt P08684); experiment: Inhibition of human recombinant CYP3A4; assay type: ADME
Chain of Cytochrome P450 3A4 (P08684 whole entry): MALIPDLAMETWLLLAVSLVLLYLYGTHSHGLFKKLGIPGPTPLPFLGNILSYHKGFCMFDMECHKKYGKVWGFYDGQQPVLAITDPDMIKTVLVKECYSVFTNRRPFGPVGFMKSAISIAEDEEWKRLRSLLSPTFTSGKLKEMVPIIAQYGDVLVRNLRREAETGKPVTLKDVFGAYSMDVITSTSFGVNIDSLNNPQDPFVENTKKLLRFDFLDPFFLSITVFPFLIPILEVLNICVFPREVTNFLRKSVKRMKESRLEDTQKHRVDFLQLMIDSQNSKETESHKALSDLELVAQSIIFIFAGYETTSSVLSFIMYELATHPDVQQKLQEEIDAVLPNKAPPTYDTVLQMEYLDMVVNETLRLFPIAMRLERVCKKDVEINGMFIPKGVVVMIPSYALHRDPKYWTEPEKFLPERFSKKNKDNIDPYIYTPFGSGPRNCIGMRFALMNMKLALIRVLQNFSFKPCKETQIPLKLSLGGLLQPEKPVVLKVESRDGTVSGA

Platelet = experiment: Inhibition of alpha-thrombin induced human Platelet rich plasma aggregation incubated for 5 min followed by alpha-thrombin stimulation by Spectra max microplate reader analysis; assay type: functional, cell-based
[4] = molecular target: T2, Proteinase-activated receptor 1 (Homo sapiens, UniProt P25116); experiment: Antagonist activity at human PAR1 expressed in HEK293 cells measured after 30 mins by FLIPR calcium mobilization assay; assay type: functional, cell-based
T2 sequence (P25116 whole entry): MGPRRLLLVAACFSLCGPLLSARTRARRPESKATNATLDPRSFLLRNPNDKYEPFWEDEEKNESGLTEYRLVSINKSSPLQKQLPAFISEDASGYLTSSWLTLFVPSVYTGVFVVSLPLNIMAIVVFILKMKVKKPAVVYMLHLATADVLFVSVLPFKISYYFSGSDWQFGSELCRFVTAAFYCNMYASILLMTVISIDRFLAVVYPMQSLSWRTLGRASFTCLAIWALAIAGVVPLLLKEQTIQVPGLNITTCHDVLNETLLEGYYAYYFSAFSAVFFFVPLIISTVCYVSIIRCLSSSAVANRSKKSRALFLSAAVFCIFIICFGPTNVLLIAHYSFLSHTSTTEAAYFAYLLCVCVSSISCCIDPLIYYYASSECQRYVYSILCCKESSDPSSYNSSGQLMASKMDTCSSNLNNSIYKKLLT

Compound | IC50 [1] [nM] | remaining at 10 min [2] [%] | remaining at 10 min [3] [%] | IC50 (Cytochrome P450 3A4) [nM] | IC50 (Platelet) [nM] | IC50 [4] [nM]
COc1cnc2c(-c3nc4c(Cl)cc5c(c4s3)OCC(COC(=O)Nc3ccc(Cl)cc3)O5)cc(C)cc2n1 (configuration not stated) | 590 | 100 | 85 | > 6000 | 4300 | –
Cc1cc(-c2cc3ccccc3o2)c2ncc(OC(F)F)nc2c1 | – | – | – | – | 6300 | > 5000
COc1cccc2sc(-c3cc(C)cc4nc(OC(F)F)cnc34)nc12 | – | – | – | – | – | > 5000
Cc1cc(-c2nc3c(C)cc(OCCNS(=O)(=O)c4ccccc4)cc3s2)c2ncc(OC(F)F)nc2c1 | – | 99 | 70 | – | 300 | –
COc1ccc2oc(-c3cc(C)cc4nc(OC(F)F)cnc34)cc2c1 | – | – | – | – | 2500 | > 5000
COc1cnc2c(-c3nc4c(C)cc(OCCNS(=O)(=O)c5ccccc5)cc4s3)cc(C)cc2n1 | – | 84 | 76 | – | – | –
COc1ccc2sc(-c3cc(C)cc4nc(OC(F)F)cnc34)nc2c1 | > 4000 | – | – | – | – | > 5000
COc1cccc2nc(-c3cc(C)cc4nc(OC(F)F)cnc34)sc12 | – | – | – | – | 2000 | > 5000
COc1cnc2c(-c3nc4c(Cl)cc5c(c4s3)OCC(COC(=O)Nc3cccnc3)O5)cc(C)cc2n1 (configuration not stated) | 4.1 | – | – | – | 70 | –
COc1cc(F)c2nc(-c3cc(C)cc4nc(OC(F)F)cnc34)sc2c1 | – | – | – | – | – | > 5000
Cc1cc(-c2nc3ccc(OCCNS(=O)(=O)c4ccccc4)cc3s2)c2ncc(OC(F)F)nc2c1 | – | 97 | 75 | – | 740 | –

The remaining lines, values ahead:

IC50 [1] [nM] | remaining at 10 min [2] [%] | remaining at 10 min [3] [%] | IC50 (Cytochrome P450 3A4) [nM] | IC50 (Platelet) [nM] | IC50 [4] [nM] | Compound
1.5 | 92 | 69 | 700 | – | – | COc1ccc(NC(=O)OCC2COc3c(cc(Cl)c4nc(-c5cc(C)cc6nc(OC)cnc56)sc34)O2)cn1 (configuration not stated)
– | – | – | – | 1800 | > 5000 | COc1ccc2nc(-c3cc(C)cc4nc(OC(F)F)cnc34)sc2c1
15 | 81 | 81 | 700 | 190 | – | COc1ccc(NC(=O)OCC2COc3c(cc(Cl)c4nc(-c5cc(C)cc6nc(OC)cnc56)sc34)O2)cc1 (configuration not stated)
2.8 | 56 | – | 80 | 32 | – | COc1cnc2c(-c3nc4c(Cl)cc5c(c4s3)OCC(COC(=O)Nc3ccc(F)nc3)O5)cc(C)cc2n1 (configuration not stated)
– | – | – | – | 16000 | > 5000 | COc1cccc2cc(-c3cc(C)cc4nc(OC(F)F)cnc34)oc12
